Measured values as given in patent US5358707A, “Oxidized variants of GM-CSF” (Schering Corporation, priority 1992, dated 1994).
“And” between values parts separate entries of the source, which are not always exact repeats. Equal entries are not always repeated.

How the values were obtained:
[1] = tested on: KG-1 cells; assay: KG-1 Cell Bioassay (MTT, cell growth stimulation); format: cell-based, human
Protocol: Briefly, cultures of about 1×10^4 cells were incubated with dilutions of the various proteins in Iscove's modified Dulbecco's medium at 37° C. for 6 days. The tetrazolium salt MTT (3-[4,5-Dimethylthiazol-2-yl]-2,5-diphenyltetrazolium bromide; Thiazolyl blue) was then added at a final concentration of 0.5 mg/ml, and incubation was continued for another 4 hours. MTT is cleaved by mitochondrial dehydrogenase enzymes to produce a colored reaction product, formazan, the quantity of which is directly related to LOG2 cell concentration.

[2] = Analytical isoelectric focusing; format: physicochemical

Substance: GM-CSF: Unoxidized recombinant mature human GM-CSF produced in E. coli; designated V0 when isolated from the secretory expression extract
- Biological Activity (Units/mg × 10^-9) ([1]; KG-1 cells, 6 days, MTT, titer from dilution producing 50% maximal cell growth stimulation vs standard GM-CSF, MET-O and V variants analysed at different times): 2.9 Units/mg × 10^-9 and 5.3 Units/mg × 10^-9
- Biological Activity (% GM-CSF Activity) ([1]; percentage of the unoxidized GM-CSF specific bioactivity of the same run): 100%
- pI [2]: about 5.3
